Experimental data published in patent publication US20040204499A1, “Preparation for breast duct fluid collection” (priority 2000, published 2004).

Assay: Clinical trial of breast ductal lavage with topical, subcutaneous and/or intraductal anesthesia; patient-recorded pain and post-procedure notes
Format: in vivo, human
Method: A clinical trial was conducted at several different clinical sites by several different physician practitioners. Sometimes the procedures were conducted by practitioners using topical application of anesthetic, subcutaneous anesthesia injection, sometimes using intraductal anesthesia infusion and sometimes all three. […] Apply EMLATM cream (topical anesthetic cream) to the nipple and areola as described in the package insert. […] Dekeratinize the nipple using gauze and a small amount of Omniprep® paste (dekeratinizing agent) or […] gel. Clean the nipple and areola with alcohol and gauze. […] Before attempting ductal catheterization, identify the ductal orifice under magnification, by using the breast aspirator and/or by gently squeezing on the nipple to yield discharge. Use of an incandescent lamp to warm the nipple may help relax the sphincter, thus making cannulation of the duct easier. […] Prepare the nipple and areola with a suitable disinfectant and perform nipple field block as needed. […] Open the catheter package. For intraductal administration of anesthetic, attach anesthetic syringe to inflow (i.e., lower) port and prime the tubing until fluid is expressed through the catheter body and outflow port; leave the syringe attached. […] Ensure that approximately 1 cm of the guidewire protrudes from the catheter tip. Under magnification assistance, if necessary, introduce the pre-seated guidewire/catheter unit into the desired ductal orifice to confirm the location and orientation of the duct. Advance the catheter gradually until the catheter is seated; remove the wire completely. […] Crimp the outflow tubing to prevent return of the anesthetic into the inflow tube. Administer approximately 1 cc of anesthetic through the inflow port (i.e., lower port). Administer more anesthetic as indicated. Disconnect the syringe and set aside for later use. Twist the plunger of a sterile 10 cc syringe to free the seal and attach the syringe to the outflow port. […] Connect saline filled syringe to the inflow (i.e., lower) port. The catheter is now ready for use. […] When Performing saline ductal lavage (i.e. fluid infusion and return): Crimp the outflow tubing to prevent early return into the outflow syringe. Using a 10 cc syringe filled with saline, gradually infuse saline in 0.5 cc increments, or until there is slight resistance or some discomfort (typically 2-3 mLs). Release the crimp on the outflow tubing. Massage the breast towards the nipple with both hands for 30 seconds, especially over the infused duct, taking care not to dislodge the catheter. Cloudy fluid and/or small air bubbles may collect in the catheter body, indicating fluid flow. Crimp the inflow tubing and apply suction to the outflow tubing. […]

- pain upon intraductal administration of anesthetic (in some cases, particularly practitioner RP): very low
- post procedure notes (patient feedback a day to two weeks after procedure, intraductal lidocaine only): pain
- bruising (practitioner PS, routine subcutaneous administration in a field block): highest amount of bruising
Compound: CCN(CC)CC(=O)Nc1c(C)cccc1C [lidocaine]
- lavage pain, intraductal administration compared to subcutaneous injection of anesthetic (conclusion drawn from Table I): no greater
